In patent US20160159789A1, “SUBSTITUTED PYRAZOLOPYRIDINES” (BAYER PHARMA AKTIENGESELLSCHAFT, priority 2013, published 2016):

Molecular target: T1, human full-length MKNK1 (Homo sapiens, UniProt Q9BUB5, T385D)
T1 construct: purchased Carna Biosciences 02-145; host or cells: insect cells (baculovirus expression system)
Assay: MKNK1 kinase high ATP assay (TR-FRET)
Format: biochemical
Conditions: high ATP (2 mM final), 15 min preincubation with enzyme, GST-MKNK1 (T344D)
Outline: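 GST-tagged full-length human MKNK1 from insect cells, preincubated 15 min with compound at 22° C in HEPES pH 7.5/MgCl2/DTT buffer, then reacted 30 min with 2 mM ATP and 0.06 μM biotinylated peptide (final). Phosphopeptide detected by TR-FRET (anti-pS6 pSer236/Eu-ProteinG, streptavidin-XL665), 665/620 ratio normalised to no-enzyme and no-inhibitor controls.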

T1 sequence (Q9BUB5 1-424 isoform Q9BUB5-2 T344D): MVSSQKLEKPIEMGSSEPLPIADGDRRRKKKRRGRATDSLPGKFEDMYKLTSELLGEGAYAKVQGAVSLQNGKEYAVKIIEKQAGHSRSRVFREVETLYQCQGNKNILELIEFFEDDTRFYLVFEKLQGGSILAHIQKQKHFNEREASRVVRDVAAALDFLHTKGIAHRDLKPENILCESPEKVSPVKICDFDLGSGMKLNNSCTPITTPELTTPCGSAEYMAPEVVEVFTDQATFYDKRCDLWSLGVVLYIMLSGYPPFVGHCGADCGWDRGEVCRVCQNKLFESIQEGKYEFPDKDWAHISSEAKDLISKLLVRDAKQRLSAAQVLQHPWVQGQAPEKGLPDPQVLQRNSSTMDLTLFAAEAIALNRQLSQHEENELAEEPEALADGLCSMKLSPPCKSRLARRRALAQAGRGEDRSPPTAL

IC50 | Structure (SMILES)
4.6 nM | CCN(C)C(=O)[C@H]1CCc2c(sc3ncnc(Nc4cc5cn[nH]c5nc4O)c23)C1 [Example 112, (7S)—N-Ethyl-4-[(6-hydroxy-1H-pyrazolo[3,4-b]pyridin-5-yl)amino]-N-methyl-5,6,7,8-tetrahydro[1]benzothieno[2,3-d]pyrimidine-7-carboxamide]
3.3 nM | CCCN(C)C(=O)[C@H]1CCc2c(sc3ncnc(Nc4cc5cn[nH]c5nc4O)c23)C1 [Example 113, (7S)-4-[(6-Hydroxy-1H-pyrazolo[3,4-b]pyridin-5-yl)amino]-N-methyl-N-propyl-5,6,7,8-tetrahydro[1]benzothieno[2,3-d]pyrimidine-7-carboxamide]
4.6 nM | CC(C)N(C)C(=O)[C@H]1CCc2c(sc3ncnc(Nc4cc5cn[nH]c5nc4O)c23)C1 [Example 114, (7S)-4-[(6-Hydroxy-1H-pyrazolo[3,4-b]pyridin-5-yl)amino]-N-methyl-N-(propan-2-yl)-5,6,7,8-tetrahydro[1]benzothieno[2,3-d]pyrimidine-7-carboxamide]
6.9 nM | O=C([C@H]1CCc2c(sc3ncnc(Nc4cc5cn[nH]c5nc4O)c23)C1)N1C[C@@H]2C[C@H]1CO2 [Example 115]
2.1 nM | CN1CCN(C(=O)[C@H]2CCc3c(sc4ncnc(Nc5cc6cn[nH]c6nc5O)c34)C2)CC1 [Example 116]
1.4 nM | CN(C)C1CCN(C(=O)[C@H]2CCc3c(sc4ncnc(Nc5cc6cn[nH]c6nc5O)c34)C2)CC1 [Example 117, [4-(Dimethylamino)piperidin-1-yl]{(7S)-4-[(6-hydroxy-1H-pyrazolo[3,4-b]pyridin-5-yl)amino]-5,6,7,8-tetrahydro[1]benzothieno[2,3-d]pyrimidin-7-yl}methanone]
8.1 nM | CN(C)CCCNC(=O)c1[nH]c2ncnc(Nc3cc4cn[nH]c4cn3)c2c1Br [Example 118, 5-Bromo-N-[3-(dimethylamino)propyl]-4-(1H-pyrazolo[3,4-c]pyridin-5-ylamino)-7H-pyrrolo[2,3-d]pyrimidine-6-carboxamide]
67.7 nM | CN(C)CCCN(C)C(=O)c1[nH]c2ncnc(Nc3cc4cn[nH]c4cn3)c2c1Br [Example 119, 5-Bromo-N-[3-(dimethylamino)propyl]-N-methyl-4-(1H-pyrazolo[3,4-c]pyridin-5-ylamino)-7H-pyrrolo[2,3-d]pyrimidine-6-carboxamide]
14.5 nM | CN(C)CCNC(=O)c1[nH]c2ncnc(Nc3cc4cn[nH]c4cn3)c2c1Br [Example 120, 5-Bromo-N-[2-(dimethylamino)ethyl]-4-(1H-pyrazolo[3,4-c]pyridin-5-ylamino)-7H-pyrrolo[2,3-d]pyrimidine-6-carboxamide]
30.1 nM | C[C@H]1COCCN1C(=O)c1[nH]c2ncnc(Nc3cc4cn[nH]c4cn3)c2c1Br [Example 121, [5-Bromo-4-(1H-pyrazolo[3,4-c]pyridin-5-ylamino)-7H-pyrrolo[2,3-d]pyrimidin-6-yl][(3S)-3-methylmorpholin-4-yl]methanone]
230 nM | CN(C)C(=O)c1nc2c(Nc3cnc4[nH]ncc4c3)ncnc2s1 [Example 123, N,N-Dimethyl-7-(1H-pyrazolo[3,4-b]pyridin-5-ylamino)[1,3]thiazolo[5,4-d]pyrimidine-2-carboxamide]
65.9 nM | CN(C)CCNC(=O)c1[nH]c2ncnc(Nc3cnc4[nH]ncc4c3)c2c1Br [Example 124, 5-Bromo-N-[2-(dimethylamino)ethyl]-4-(1H-pyrazolo[3,4-b]pyridin-5-ylamino)-7H-pyrrolo[2,3-d]pyrimidine-6-carboxamide]
29.2 nM | CN(C)CCCNC(=O)c1[nH]c2ncnc(Nc3cnc4[nH]ncc4c3)c2c1Br [Example 125, 5-Bromo-N-[3-(dimethylamino)propyl]-4-(1H-pyrazolo[3,4-b]pyridin-5-ylamino)-7H-pyrrolo[2,3-d]pyrimidine-6-carboxamide]
171 nM | O=C(c1nc2c(Nc3cnc4[nH]ncc4c3)ncnc2s1)N1CCCCC1 [Example 126, Piperidin-1-yl[7-(1H-pyrazolo[3,4-b]pyridin-5-ylamino)[1,3]thiazolo[5,4-d]pyrimidin-2-yl]methanone]
76.8 nM | CN(C)C1CCN(C(=O)c2[nH]c3ncnc(Nc4cnc5[nH]ncc5c4)c3c2Br)CC1 [Example 127, [5-Bromo-4-(1H-pyrazolo[3,4-b]pyridin-5-ylamino)-7H-pyrrolo[2,3-d]pyrimidin-6-yl][4-(dimethylamino)piperidin-1-yl]methanone]
4290 nM | CN(C)C(=O)CCN(C)C(=O)c1nc2c(Nc3cnc4[nH]ncc4c3)ncnc2s1 [Example 129, N-[3-(Dimethylamino)-3-oxopropyl]-N-methyl-7-(1H-pyrazolo[3,4-b]pyridin-5-ylamino)[1,3]thiazolo[5,4-d]pyrimidine-2-carboxamide]
212 nM | COc1nc2[nH]ncc2cc1Nc1ncnc2sc(C(=O)N(C)CC(=O)N(C)C)nc12 [Example 130, N-[2-(Dimethylamino)-2-oxoethyl]-7-[(6-methoxy-1H-pyrazolo[3,4-b]pyridin-5-yl)amino]-N-methyl[1,3]thiazolo[5,4-d]pyrimidine-2-carboxamide]
6.7 nM | COc1nc2[nH]ncc2cc1Nc1ncnc2[nH]c(C(=O)N(C)CCCN(C)C)c(Br)c12 [Example 131, 5-Bromo-N-[3-(dimethylamino)propyl]-4-[(6-methoxy-1H-pyrazolo[3,4-b]pyridin-5-yl)amino]-N-methyl-7H-pyrrolo[2,3-d]pyrimidine-6-carboxamide]
23.4 nM | CN(C)CCCN(C)C(=O)c1[nH]c2ncnc(Nc3cc4cn[nH]c4nc3O)c2c1Br [Example 132, 5-Bromo-N-[3-(dimethylamino)propyl]-4-[(6-hydroxy-1H-pyrazolo[3,4-b]pyridin-5-yl)amino]-N-methyl-7H-pyrrolo[2,3-d]pyrimidine-6-carboxamide]
150 nM | COc1nc2[nH]ncc2cc1Nc1ncnc2sc(C(=O)N3CCCCC3)nc12 [Example 133, {7-[(6-Methoxy-1H-pyrazolo[3,4-b]pyridin-5-yl)amino][1,3]thiazolo[5,4-d]pyrimidin-2-yl}(piperidin-1-yl)methanone]
10.8 nM | O=C(c1[nH]c2ncnc(Nc3cc4cn[nH]c4nc3O)c2c1Br)N1CCCCC1 [Example 134]
7.3 nM | COc1nc2[nH]ncc2cc1Nc1ncnc2[nH]c(C(=O)N3CCOC[C@@H]3C)c(Br)c12 [Example 135]
0.5 nM | COc1nc2[nH]ncc2cc1Nc1ncnc2sc3c(c12)CC[C@H](C(=O)N(C)CCC(F)(F)F)C3 [Example 136, (7S)-4-[(6-Methoxy-1H-pyrazolo[3,4-b]pyridin-5-yl)amino]-N-methyl-N-(3,3,3-trifluoropropyl)-5,6,7,8-tetrahydro[1]benzothieno[2,3-d]pyrimidine-7-carboxamide]
203 nM | CN(C)C(=O)CCN(C)C(=O)c1nc2c(Nc3cc4cn[nH]c4cn3)ncnc2s1 [Example 137, N-[3-(Dimethylamino)-3-oxopropyl]-N-methyl-7-(1H-pyrazolo[3,4-c]pyridin-5-ylamino)[1,3]thiazolo[5,4-d]pyrimidine-2-carboxamide]
114 nM | COc1nc2[nH]ncc2cc1Nc1ncnc2sc(C(=O)N(C)CCC(=O)N(C)C)nc12 [Example 138, N-[3-(Dimethylamino)-3-oxopropyl]-7-[(6-methoxy-1H-pyrazolo[3,4-b]pyridin-5-yl)amino]-N-methyl[1,3]thiazolo[5,4-d]pyrimidine-2-carboxamide]
4.7 nM | CN(CCC(F)(F)F)C(=O)[C@H]1CCc2c(sc3ncnc(Nc4cc5cn[nH]c5nc4O)c23)C1 [Example 139, (7S)-4-[(6-Hydroxy-1H-pyrazolo[3,4-b]pyridin-5-yl)amino]-N-methyl-N-(3,3,3-trifluoropropyl)-5,6,7,8-tetrahydro[1]benzothieno[2,3-d]pyrimidine-7-carboxamide]
2.4 nM | CN(C)C1CN(C(=O)[C@H]2CCc3c(sc4ncnc(Nc5cc6cn[nH]c6cn5)c34)C2)C1 [Example 140, 10 [3-(Dimethylamino)azetidin-1-yl][(7S)-4-(1H-pyrazolo[3,4-c]pyridin-5-ylamino)-5,6,7,8-tetrahydro[1]benzothieno[2,3-d]pyrimidin-7-yl]methanone]
1.2 nM | COc1nc2[nH]ncc2cc1Nc1ncnc2sc3c(c12)CC[C@H](C(=O)N1CC(N(C)C)C1)C3 [Example 141, [3-(Dimethylamino)azetidin-1-yl]{(7S)-4-[(6-methoxy-1H-pyrazolo[3,4-b]pyridin-5-yl)amino]-5,6,7,8-tetrahydro[1]benzothieno[2,3-d]pyrimidin-7-yl}methanone]
11.8 nM | CN(C)C1CN(C(=O)[C@H]2CCc3c(sc4ncnc(Nc5cnc6[nH]ncc6c5)c34)C2)C1 [Example 142, [3-(Dimethylamino)azetidin-1-yl][(7S)-4-(1H-pyrazolo[3,4-b]pyridin-5-ylamino)-5,6,7,8-tetrahydro[1]benzothieno[2,3-d]pyrimidin-7-yl]methanone]
